Measurements from patent publication US20230150974A1 (Foghorn Therapeutics Inc., priority 2020, published 2023).

Assays:
HiBiT-BRM = target: T1, HiBiT-BRM (Homo sapiens, UniProt P51531); assay: HiBiT-BRM cell-based degradation assay (Nano-Glo HiBiT Lytic Detection); settings: HeLa cells expressing HiBiT-BRM, 24 h; for DC50: read-out: BRM HiBit Degradation IC50
T1 construct: expressed in transfected cells
Experimental: (§1) Procedure: A stable HeLa cell line expressing HiBiT-BRM was generated. On day 0, 5000 cells were seeded in 40 μL of media into each well of 384-well cell culture plates. […] Subsequently plates were incubated for 24 h in a standard tissue culture incubator and equilibrated at room temperature for 15 minutes. Nano-Glo HiBiT Lytic Detection System (Promega N3050) reagent was freshly prepared and 20 ul was added to each well. Upon addition of this LgBit-containing reagent, the HiBiT and LgBiT proteins associate to form the luminescent NanoBiT luciferase. The plates were shaken for 10 minutes at room temperature and the bioluminescence read using an EnVision plate reader (PerkinElmer).
(§2) The degradation % was calculated using the following formula: % degradation=100%−100%×(LumSample−LumLC)/(LumHC−LumLC). DMSO treated cells are employed as High Control (HC) and 2 μM of a known BRM/BRG1 degrader standard treated cells are employed as Low Control (LC).

HiBit-BRG1 = target: T2, HiBit-BRG1 (Homo sapiens, UniProt P51532); assay: HiBit-BRG1 cell-based degradation assay (Nano-Glo HiBiT Lytic Detection); settings: HeLa cells expressing HiBit-BRG1 and LgBit, 24 h; for DC50: read-out: BRG1 HiBit Degradation IC50; for Dmax: read-out: BRG1 HiBit Degradation Maximum (%)
T2 construct: expressed in transfected cells
Experimental: as §1
For measurement of BRG1 degradation, a stable HeLa cell line expressing HiBit-BRG1 and LgBit was generated. The same protocol as above was then followed.
as §2

T2 sequence (P51532 whole entry): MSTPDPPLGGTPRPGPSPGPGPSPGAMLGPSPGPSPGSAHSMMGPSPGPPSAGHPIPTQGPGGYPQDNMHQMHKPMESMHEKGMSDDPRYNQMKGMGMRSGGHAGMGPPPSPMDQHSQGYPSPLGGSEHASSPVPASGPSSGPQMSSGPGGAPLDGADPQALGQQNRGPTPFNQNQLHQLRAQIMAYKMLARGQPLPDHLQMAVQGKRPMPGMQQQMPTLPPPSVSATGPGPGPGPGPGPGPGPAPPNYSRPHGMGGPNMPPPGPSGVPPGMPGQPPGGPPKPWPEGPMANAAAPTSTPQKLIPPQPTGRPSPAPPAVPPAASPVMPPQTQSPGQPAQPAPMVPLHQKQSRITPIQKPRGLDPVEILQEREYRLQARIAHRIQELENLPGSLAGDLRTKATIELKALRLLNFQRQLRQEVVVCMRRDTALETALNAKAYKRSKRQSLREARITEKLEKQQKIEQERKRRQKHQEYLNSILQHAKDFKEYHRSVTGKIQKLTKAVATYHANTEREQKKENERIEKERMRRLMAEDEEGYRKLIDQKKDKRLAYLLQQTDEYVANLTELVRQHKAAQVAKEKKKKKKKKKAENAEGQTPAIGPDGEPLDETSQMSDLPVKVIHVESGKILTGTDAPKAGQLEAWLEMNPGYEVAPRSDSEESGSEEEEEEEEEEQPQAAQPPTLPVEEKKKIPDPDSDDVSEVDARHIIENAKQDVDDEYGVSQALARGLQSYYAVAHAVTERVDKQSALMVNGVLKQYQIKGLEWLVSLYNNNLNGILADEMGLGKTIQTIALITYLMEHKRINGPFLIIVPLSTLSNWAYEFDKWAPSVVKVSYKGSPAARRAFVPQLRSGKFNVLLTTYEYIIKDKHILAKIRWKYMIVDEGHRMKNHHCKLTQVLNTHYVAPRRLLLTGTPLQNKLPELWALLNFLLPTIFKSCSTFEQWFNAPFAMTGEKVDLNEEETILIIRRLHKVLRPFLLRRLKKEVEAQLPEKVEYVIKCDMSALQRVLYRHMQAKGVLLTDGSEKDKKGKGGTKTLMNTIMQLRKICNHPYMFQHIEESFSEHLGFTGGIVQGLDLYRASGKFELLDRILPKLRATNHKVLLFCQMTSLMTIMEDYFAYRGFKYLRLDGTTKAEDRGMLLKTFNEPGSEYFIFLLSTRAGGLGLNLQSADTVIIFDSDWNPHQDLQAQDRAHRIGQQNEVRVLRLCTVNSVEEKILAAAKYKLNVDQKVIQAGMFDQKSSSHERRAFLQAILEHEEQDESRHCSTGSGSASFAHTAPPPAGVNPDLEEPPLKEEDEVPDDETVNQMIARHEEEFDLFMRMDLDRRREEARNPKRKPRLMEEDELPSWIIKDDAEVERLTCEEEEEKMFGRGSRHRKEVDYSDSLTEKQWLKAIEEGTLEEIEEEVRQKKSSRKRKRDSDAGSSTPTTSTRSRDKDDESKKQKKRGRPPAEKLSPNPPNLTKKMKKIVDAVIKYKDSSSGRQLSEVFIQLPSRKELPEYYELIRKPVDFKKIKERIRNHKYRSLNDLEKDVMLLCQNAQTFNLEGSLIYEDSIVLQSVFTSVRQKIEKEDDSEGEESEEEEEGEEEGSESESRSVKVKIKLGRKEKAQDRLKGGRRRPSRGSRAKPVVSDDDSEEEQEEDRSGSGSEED
T1 sequence (P51531 whole entry): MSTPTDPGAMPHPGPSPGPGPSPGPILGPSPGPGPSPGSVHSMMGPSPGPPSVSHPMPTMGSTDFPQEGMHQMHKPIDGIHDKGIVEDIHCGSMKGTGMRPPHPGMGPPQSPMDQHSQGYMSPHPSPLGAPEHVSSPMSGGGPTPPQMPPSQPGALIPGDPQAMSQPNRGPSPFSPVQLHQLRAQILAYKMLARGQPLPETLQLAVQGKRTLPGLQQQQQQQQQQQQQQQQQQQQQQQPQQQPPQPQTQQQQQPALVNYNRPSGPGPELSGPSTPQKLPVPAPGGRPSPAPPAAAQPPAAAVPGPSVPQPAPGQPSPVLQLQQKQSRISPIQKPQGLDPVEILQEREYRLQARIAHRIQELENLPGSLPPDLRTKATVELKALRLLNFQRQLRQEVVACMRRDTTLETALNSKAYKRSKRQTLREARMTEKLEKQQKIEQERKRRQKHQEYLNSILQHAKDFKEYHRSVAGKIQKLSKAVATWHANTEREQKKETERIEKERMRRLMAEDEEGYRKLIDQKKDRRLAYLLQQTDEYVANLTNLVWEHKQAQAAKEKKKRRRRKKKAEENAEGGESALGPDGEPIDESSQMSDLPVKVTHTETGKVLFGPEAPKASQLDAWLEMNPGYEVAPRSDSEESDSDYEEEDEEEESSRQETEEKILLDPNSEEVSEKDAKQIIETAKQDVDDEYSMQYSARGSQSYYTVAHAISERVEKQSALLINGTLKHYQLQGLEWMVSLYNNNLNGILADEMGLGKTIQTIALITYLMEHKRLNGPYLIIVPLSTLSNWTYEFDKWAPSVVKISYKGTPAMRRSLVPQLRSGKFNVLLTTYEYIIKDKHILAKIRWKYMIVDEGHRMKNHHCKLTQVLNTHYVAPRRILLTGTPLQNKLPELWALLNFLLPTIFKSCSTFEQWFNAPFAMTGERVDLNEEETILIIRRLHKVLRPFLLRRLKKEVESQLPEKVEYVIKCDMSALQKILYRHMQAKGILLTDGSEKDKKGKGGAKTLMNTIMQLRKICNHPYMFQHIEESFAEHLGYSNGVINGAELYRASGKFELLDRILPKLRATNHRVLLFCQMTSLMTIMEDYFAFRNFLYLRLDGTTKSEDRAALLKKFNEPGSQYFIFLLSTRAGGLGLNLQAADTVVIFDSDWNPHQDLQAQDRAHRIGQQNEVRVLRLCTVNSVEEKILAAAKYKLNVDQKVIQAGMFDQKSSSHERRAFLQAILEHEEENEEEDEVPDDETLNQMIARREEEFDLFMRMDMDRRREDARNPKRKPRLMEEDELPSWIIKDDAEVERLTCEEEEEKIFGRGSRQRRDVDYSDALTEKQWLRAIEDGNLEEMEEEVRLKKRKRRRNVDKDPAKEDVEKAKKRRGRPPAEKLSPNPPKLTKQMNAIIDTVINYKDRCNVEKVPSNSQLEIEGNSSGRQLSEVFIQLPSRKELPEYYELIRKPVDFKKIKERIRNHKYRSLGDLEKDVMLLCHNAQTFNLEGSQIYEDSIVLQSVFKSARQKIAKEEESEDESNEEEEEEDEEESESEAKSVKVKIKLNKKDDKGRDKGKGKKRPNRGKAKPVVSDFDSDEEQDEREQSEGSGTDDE

Compound | BRM HiBit Degradation Maximum (%) (HiBiT-BRM) | DC50 (HiBiT-BRM) | DC50 (HiBit-BRG1) | Dmax (HiBit-BRG1)
Cc1ncsc1-c1ccc([C@H](C)NC(=O)[C@@H]2C[C@@H](O)CN2C(=O)[C@@H](NC(=O)CCCCCCCCCCCCCC(=O)N(C)Cc2ccc(CCOc3cc(-c4ccccc4O)nnc3N)cc2)C(C)(C)C)cc1 [Compound 197, N1-(4-(2-((3-amino-6-(2-hydroxyphenyl)pyridazin-4-yl)oxy)ethyl)benzyl)-N15-((S)-1-((2S,4R)-4-hydroxy-2-(((S)-1-(4-(4-methylthiazol-5-yl)phenyl)ethyl)carbamoyl)pyrrolidin-1-yl)-3,3-dimethyl-1-oxobutan-2-yl)-N1-methylpentadecanediamide] | A (“A” indicates maximum degradation ≥75%) | > 10 nM | > 1000 nM | < 50%
Cc1ncsc1-c1ccc(CNC(=O)[C@@H]2C[C@H](O)CN2C(=O)[C@@H](NC(=O)CCCCCCCCCNC(=O)c2ccc(CCOc3cc(-c4ccccc4O)nnc3N)cc2)C(C)(C)C)cc1 [Compound 105, (2S,4S)-1-((S)-2-(10-(4-(2-((3-amino-6-(2-hydroxyphenyl)pyridazin-4-yl)oxy)ethyl)benzamido)decanamido)-3,3-dimethylbutanoyl)-4-hydroxy-N-(4-(4-methylthiazol-5-yl)benzyl)pyrrolidine-2-carboxamide] | C (“C” indicates maximum degradation <50%) | > 1000 nM | > 1000 nM | < 50%
Nc1nnc(-c2ccccc2O)cc1OCCc1ccc(CNC(=O)CCCCOc2cccc3c2C(=O)N(C2CCC(=O)NC2=O)C3)cc1 (stereo not drawn) [Compound 152, N-(4-(2-((3-amino-6-(2-hydroxyphenyl)pyridazin-4-yl)oxy)ethyl)benzyl)-5-((2-(2,6-dioxopiperidin-3-yl)-3-oxoisoindolin-4-yl)oxy)pentanamide] | A (“A” indicates maximum degradation ≥75%) | > 100 nM | > 1000 nM | < 50%
Nc1nnc(-c2ccccc2O)cc1OCCc1ccc(CNC(=O)CCOCCOCCNc2ccc3c(c2)C(=O)N(C2CCC(=O)NC2=O)C3=O)cc1 (stereo not drawn) [Compound 70, N-[[4-(2-[[3-amino-6-(2-hydroxyphenyl)pyridazin-4-yl]oxy]ethyl)phenyl]methyl]-3-[2-(2-[[2-(2,6-dioxopiperidin-3-yl)-1,3-dioxoisoindol-5-yl]amino]ethoxy)ethoxy]propanamide] | C (“C” indicates maximum degradation <50%) | > 1000 nM | > 1000 nM | < 50%
Cc1ncsc1-c1ccc(CNC(=O)[C@@H]2C[C@@H](O)CN2C(=O)[C@@H](NC(=O)CCCCCCCCCCCC(=O)NCc2ccc(CCOc3cc(-c4ccccc4O)nnc3N)cc2)C(C)(C)C)cc1 [Compound 31, N1-(4-(2-((3-amino-6-(2-hydroxyphenyl)pyridazin-4-yl)oxy)ethyl)benzyl)-N13-((S)-1-((2S,4R)-4-hydroxy-2-((4-(4-methylthiazol-5-yl)benzyl)carbamoyl)pyrrolidin-1-yl)-3,3-dimethyl-1-oxobutan-2-yl)tridecanediamide] | B (“B” indicates maximum degradation ≥50%) | > 10 nM | > 1000 nM | < 50%
Nc1nnc(-c2ccccc2O)cc1NCCc1ccc(CNCCN2CCN(c3cccc4c3C(=O)N(C3CCC(=O)NC3=O)C4=O)CC2)cc1 (stereo not drawn) [Compound 166, 4-(4-(2-((4-(2-((3-amino-6-(2-hydroxyphenyl)pyridazin-4-yl)amino)ethyl)benzyl)amino)ethyl)piperazin-1-yl)-2-(2,6-dioxopiperidin-3-yl)isoindoline-1,3-dione] | C (“C” indicates maximum degradation <50%) | > 1000 nM | > 1000 nM | < 50%
